Assays:
Format in all cases: cell-based
K. aerogenes A = assay: MIC by serial dilution in nutrient agar (human bacteria, Table 1); conditions: Klebsiella aerogenes, 5% "chocolated" horse blood
Sarcina lutea 8340 = assay: as above; conditions: Micrococcus luteus, 5% "chocolated" horse blood
Ps. aeruginosa 10662 = assay: as above; conditions: Pseudomonas aeruginosa, 5% "chocolated" horse blood
Strep.faecalis I = assay: as above; conditions: Enterococcus faecalis, 5% "chocolated" horse blood
[1] = test system: Neisseria catarrhalis 1502; assay: as above; conditions: 5% "chocolated" horse blood
[2] = test system: Corynebacterium xerosis 9755; assay: as above; conditions: 5% "chocolated" horse blood
Strep.pyogenes B 2788 = assay: as above; conditions: Streptococcus pyogenes, B2788, 5% "chocolated" horse blood
Strep.pyogenes C 2761 = assay: as above; conditions: Streptococcus pyogenes, C2761, 5% "chocolated" horse blood
Strep.pneumoniae CN33 = assay: as above; conditions: Streptococcus pneumoniae, 5% "chocolated" horse blood
[3] = test system: Haemophilus influenzae Q1; assay: as above; conditions: Haemophilus influenzae, Q1
Strep.pyogenes A 64/848 = assay: as above; conditions: Streptococcus pyogenes, A64/848, 5% "chocolated" horse blood
E.coli ESS = assay: as above; conditions: Escherichia coli, 5% "chocolated" horse blood
Staph.aureus Russell = assay: as above; conditions: Staphylococcus aureus; Staph.aureus Russell; nutrient agar, 5% "chocolated" horse blood; read-out: MIC
E.coli NCTC 10418 [4] = assay: as above; conditions: Escherichia coli, NCTC10418, 5% "chocolated" horse blood
[5] = test system: M.suipneumoniae J2206/183b; assay: Anti-mycoplasmal MIC by serial dilution in Friis broth (Table 3); conditions: Mesomycoplasma hyopneumoniae, read-out: in vitro MIC
From the text: (§1) *Determined by serial dilution in Friis broth (Friis N.F. 1975. Nord. Vet
(§2) Med. 27, 337) in microtiter plates using a modification of the metabolite
(§3) inhibition test (TaylorRobinson D. 1967. Postgrad. Med. J., 43, suppl.

M.pneumoniae 427a = assay: as above; conditions: Mycoplasmoides pneumoniae, read-out: in vitro MIC
From the text: as §1, §2, §3

M.dispar NCTC 10125 = assay: as above; conditions: read-out: in vitro MIC
From the text: as §1, §2, §3

Staph.aureus Oxford [6] = assay: MIC by serial dilution in nutrient agar (human bacteria, Table 1); conditions: Staphylococcus aureus; Staph.aureus Oxford; nutrient agar, 5% "chocolated" horse blood; read-out: MIC
Bacillus subtilis 6633 = assay: as above; conditions: 5% "chocolated" horse blood
P. mirabilis 889 = assay: as above; conditions: Proteus mirabilis, 5% "chocolated" horse blood
[7] = test system: Strep.suis (group D) SPS11; assay: MIC by agar dilution (veterinary bacteria, Table 2); conditions: Streptococcus suis, diagnostic sensitivity test agar, 24 hours, 37° C.
Description: (§4) The MIC values were determined by agar dilution using diagnostic sensitivity test agar (Oxoid) using a multipoint inoculator delivering 0.001 ml of an inoculum adjusted to give 10^7 -10^8 organisms per ml and read after 24 hours incubation at 37° C.

E.coli E1 = assay: as above; conditions: Escherichia coli, diagnostic sensitivity test agar, 24 hours, 37° C.
Description: as §4

Strep.dysgalactiae SPD1 = assay: as above; conditions: Streptococcus dysgalactiae, diagnostic sensitivity test agar, 24 hours, 37° C.
Description: as §4

Bord.bronchiseptica BO8 = assay: as above; conditions: Bordetella bronchiseptica, diagnostic sensitivity test agar, 24 hours, 37° C.
Description: as §4

[8] = test system: Corynebacterium pyogenes CY1; assay: as above; conditions: Trueperella pyogenes, diagnostic sensitivity test agar, 24 hours, 37° C.
Description: as §4

Strep.agalactiae SPA1 = assay: as above; conditions: Streptococcus agalactiae, diagnostic sensitivity test agar, 24 hours, 37° C.
Description: as §4

Bord.bronchiseptica BO9 = assay: as above; conditions: Bordetella bronchiseptica, diagnostic sensitivity test agar, 24 hours, 37° C.
Description: as §4

B. subtilis ATCC 6633 = assay: as above; conditions: Bacillus subtilis, ATCC6633, diagnostic sensitivity test agar, 24 hours, 37° C.
Description: as §4

Staph.aureus Oxford [9] = assay: as above; conditions: Staphylococcus aureus, diagnostic sensitivity test agar, 24 hours, 37° C.
Description: as §4

S.dublin S7 = assay: as above; conditions: Salmonella enterica, diagnostic sensitivity test agar, 24 hours, 37° C.
Description: as §4

[10] = test system: Erysipelothrix rhusiopathiae NCTC 8163; assay: as above; conditions: NCTC8163, diagnostic sensitivity test agar, 24 hours, 37° C.
Description: as §4

Past.multocida PA2 = assay: as above; conditions: Pasteurella multocida, diagnostic sensitivity test agar, 24 hours, 37° C.
Description: as §4

[11] = test system: Staph.aureus 152 (pen sens); assay: as above; conditions: Staphylococcus aureus, diagnostic sensitivity test agar, 24 hours, 37° C.
Description: as §4

Past.haemolytica PA5 = assay: as above; conditions: Mannheimia haemolytica, diagnostic sensitivity test agar, 24 hours, 37° C.
Description: as §4

S.typhimurium S18 = assay: as above; conditions: Salmonella enterica, diagnostic sensitivity test agar, 24 hours, 37° C.
Description: as §4

Past.multocida PA1 = assay: as above; conditions: Pasteurella multocida, diagnostic sensitivity test agar, 24 hours, 37° C.
Description: as §4

Strep.uberis SPU1 = assay: as above; conditions: Streptococcus uberis, diagnostic sensitivity test agar, 24 hours, 37° C.
Description: as §4

[12] = test system: Staph.aureus B4 (pen resis); assay: as above; conditions: Staphylococcus aureus, diagnostic sensitivity test agar, 24 hours, 37° C.
Description: as §4

E.coli NCTC 10418 [13] = assay: as above; conditions: Escherichia coli, NCTC10418, diagnostic sensitivity test agar, 24 hours, 37° C.
Description: as §4

[14] = test system: Haemophilus influenzae Wy21; assay: MIC by serial dilution in nutrient agar (human bacteria, Table 1); conditions: 5% "chocolated" horse blood

CC(=O)C(C)C1OC1CC1COC(C/C(C)=C/C(=O)OCCCCCCCCC(=O)O)C(O)C1O (stereo not shown) [Example 4, Sodium 13--Oxopseudomonate A]
MIC (K. aerogenes A): > 100 mg/L
MIC (Sarcina lutea 8340): > 100 mg/L
MIC (Ps. aeruginosa 10662): > 100 mg/L
MIC (Strep.faecalis I): > 100 mg/L
MIC [1]: 0.5 mg/L
MIC [2]: > 100 mg/L
MIC (Strep.pyogenes B 2788): 1 mg/L
MIC (Strep.pyogenes C 2761): 0.5 mg/L
MIC (Strep.pneumoniae CN33): 0.5 mg/L
MIC [3]: 0.05 mg/L
MIC (Strep.pyogenes A 64/848): 1 mg/L
MIC (E.coli ESS): 2.5 mg/L
MIC (Staph.aureus Russell): 0.5 mg/L
MIC (E.coli NCTC 10418 [4]): > 100 mg/L
MIC [5]: 31.2 mg/L
MIC (M.pneumoniae 427a): 250 mg/L
MIC (M.dispar NCTC 10125): 3.9 mg/L
MIC (Staph.aureus Oxford [6]): 0.2 mg/L
MIC (Bacillus subtilis 6633): 0.1 mg/L
MIC (P. mirabilis 889): > 100 mg/L
MIC [7]: 20 mg/L
MIC (E.coli E1): > 80 mg/L
MIC (Strep.dysgalactiae SPD1): 1.25 mg/L
MIC (Bord.bronchiseptica BO8): 80 mg/L
MIC [8]: > 80 mg/L
MIC (Strep.agalactiae SPA1): 10 mg/L
MIC (Bord.bronchiseptica BO9): 80 mg/L
MIC (B. subtilis ATCC 6633): > 80 mg/L
MIC (Staph.aureus Oxford [9]): 1.25 mg/L
MIC (S.dublin S7): > 80 mg/L
MIC [10]: > 80 mg/L
MIC (Past.multocida PA2): 0.625 mg/L
MIC [11]: 1.25 mg/L
MIC (Past.haemolytica PA5): 10 mg/L
MIC (S.typhimurium S18): > 80 mg/L
MIC (Past.multocida PA1): 0.625 mg/L
MIC (Strep.uberis SPU1): 0.312 mg/L
MIC [12]: 1.25 mg/L
MIC (E.coli NCTC 10418 [13]): > 80 mg/L
MIC [14]: 0.1 mg/L

Source: patent publication US4374147A, “13-Oxo-monic acid esters useful as antibacterial and antimycoplasmal agents” (Beecham Group Limited, priority 1980, dated 1983)
